Reference: US20260199500A1, “Camptothecin Derivative, Conjugate Thereof, Preparation Method Therefor and Medical Use Thereof” (priority 2023, published 2026)
Where two headings read alike, the source gives them in different places.

Key:
[1] = system: H82 (SCLC) cells; assay: Inhibition of H82 cells by compounds; assay type: cell-based; conditions: PY-X (DXD) set to 1
Description: (§1) On the day of the experiment, the cells were digested with 0.25% trypsin (Gibco, 25200-072), filtered through a 40 μm sieve, diluted with the corresponding medium to a cell density of 1×10^4 cells/mL, and inoculated into a 96-well white cell culture plate (Beyotime, FCP968), with 100 μL of cells added per well. The culture plate was placed in a 37° C. incubator (Thermo 311) containing 5% C02 and incubated for 24 hours. On the second day, the samples to be tested were prepared as a stock solution at a final concentration of 1M in DMSO (Sigma, D1650), then diluted with the corresponding medium to a final concentration of 200 nM, and subjected to four-fold serial dilutions, resulting in a total of 9 concentrations. 100 μL of the diluted sample was added to each well of the 96-well plate. The plate was placed in a 37° C. incubator containing 5% CO2 and incubated for 144 hours. The cell culture plate was then removed, and 100 μL of the cell viability assay reagent (CellTiter-Glo® Luminescent Cell Viability Assay, Promega, G7571) was added to each well. The reaction was carried out in the dark at room temperature for 5 minutes. Luminescence values were read using a microplate reader (TECAN SPARK), and data were processed using Graphpad Prism 7 software.

[2] = system: H1650 (NSCLC) cells; assay: Inhibition of H1650 cells by compounds; assay type: cell-based; conditions: PY-X (DXD) set to 1
Description: as §1

[3] = system: H1437 (NSCLC) cells; assay: Inhibition of H1437 cells by compounds; assay type: cell-based; conditions: PY-X (DXD) set to 1
Description: as §1

[4] = system: SW1573 (NSCLC) cells; assay: Inhibition of SW1573 cells by compounds; assay type: cell-based; conditions: PY-X (DXD) set to 1
Description: as §1

[5] = system: PANC-1 (Pancreatic) cells; assay: Inhibition of PANC-1 cells by compounds; assay type: cell-based; conditions: PY-X (DXD) set to 1
Description: as §1

[6] = system: Colo-205 (Colon) cells; assay: Inhibition of Colo-205 cells by compounds; assay type: cell-based; conditions: PY-X (DXD) set to 1
Description: as §1

[7] = system: HT-29 (Colon) cells; assay: Inhibition of HT-29 cells by compounds; assay type: cell-based; conditions: PY-X (DXD) set to 1
Description: as §1

[8] = system: A549 (NSCLC) cells; assay: Inhibition of A549 cells by compounds; assay type: cell-based; conditions: PY-X (DXD) set to 1
Description: as §1

[9] = system: SW1990 (Pancreatic) cells; assay: Inhibition of SW1990 cells by compounds; assay type: cell-based; conditions: PY-X (DXD) set to 1
Description: as §1

[10] = system: DMS53 (SCLC) cells; assay: Inhibition of DMS53 cells by compounds; assay type: cell-based; conditions: PY-X (DXD) set to 1
Description: as §1

[11] = system: N87 gastric cancer cells; assay: Inhibitory activity of compounds on N87 gastric cancer cells (CellTiter-Glo, 144 h); assay type: cell-based; conditions: samples retested together; ratio of measured IC50 to DXD
Description: as §1
(§2) PY—Y is referenced in the document (WO2022170971A1); and PY-A is referenced in the document (WO2021148501A1).

[12] = system: MDA-MB-468 breast cancer cells; assay: Inhibitory activity of compounds on MDA-MB-468 breast cancer cells (CellTiter-Glo); assay type: cell-based; conditions: samples retested together; ratio of measured IC50 to DXD
Description: as §1, §2

[13] = Log D of small molecules (1-octanol / phosphate buffer pH 2.5 and pH 7.4, LC-MS/MS); assay type: physicochemical
Description: (1) Preparation of 100 mM phosphate buffer (PB) solution at pH 2.5 and pH 7.4 respectively: • a. Preparation of a solution of 100 mM H3PO4 in water: 14.7 M H3PO4 was diluted with water to a concentration of 100 mM H3PO4, and the pH was measured to be approximately 1.8. • b. Preparation of 100 mM NaH2PO4: 5.999 g of NaH2PO4 was dissolved in 500 mL of water and the pH was measured to be approximately 4.5. • c. Preparation of 100 mM Na2HPO4: 7.098 g of Na2HPO4 was dissolved in water to a volume of 500 mL and the pH was measured to be approximately 9.4. • d. Preparation of 100 mM PB (pH 2.5): 15 mL of 100 mM H3PO4 was added to a 50 mL tube, and then pH was adjusted to 2.5±0.05 with 100 mM NaH2PO4. • d. Preparation of 100 mM PB (pH 7.4): 15 mL of 100 mM Na2HPO4 was added to a 50 mL tube, and then pH was adjusted to 7.4±0.05 with 100 mM NaH2PO4.
(2) Saturation of PBs (pH 2.5 and pH 7.4) with 1-octanol: 10 mL of 1-octanol was added to 100 mL of 100 mM PBs (pH 2.5 and pH 7.4), and the mixture was shaken vigorously, and then allowed to stand overnight at room temperature for later use.
(3) Saturation of 1-octanol with PBs (pH 2.5 and pH 7.4): 10 mL of 100 mM PBs (pH 2.5 and pH 7.4) was added to 100 mL of 1-octanol, and the mixture was shaken vigorously, and then allowed to stand overnight at room temperature for later use.
2.1) 2 μL of 10 mM DMSO stock solution of the test compound were dispensed into test tubes, in duplicate.
2.2) 149 μL of PB saturated with 1-octanol (pH 2.5 and 7.4) were added to the tubes.
2.3) 149 μL of PB (pH 2.5 and 7.4) saturated with 1-octanol were added to the corresponding tubes.
2.4) Each tube was vigorously mixed for 2 minutes, then shaken at 800 rpm for 1 hour at room temperature.
2.5) The tubes were centrifuged at 4000 rpm for 5 minutes at room temperature.
2.6) Appropriate volumes of the buffer phase and 1-octanol phase samples were aliquoted.
2.7) These samples were diluted and analyzed using LC-MS/MS without running a calibration curve.
2.8) Data analysis: The log D value of each compound was calculated using the following formula: f

Compound	IC50 in H82 cells, ratio to DXD [1]	IC50 in H1650 cells, ratio to DXD [2]	IC50 in H1437 cells, ratio to DXD [3]	IC50 in SW1573 cells, ratio to DXD [4]	IC50 in PANC-1 cells, ratio to DXD [5]	IC50 in Colo-205 cells, ratio to DXD [6]	IC50 in HT-29 cells, ratio to DXD [7]	IC50 in A549 cells, ratio to DXD [8]	IC50 in SW1990 cells, ratio to DXD [9]	IC50 in DMS53 cells, ratio to DXD [10]	IC50 on N87 cells, ratio to DXD (retest) [11]	IC50 on 468 cells, ratio to DXD (retest) [12]	logD ([13]; pH 2.5)	logD ([13]; pH 7.4)	logD ([13]; 1-octanol / phosphate buffer pH 2.5, read-out: Log D2.5 (Oct/buff) Result)	logD ([13]; 1-octanol / phosphate buffer pH 7.4, read-out: Log D7.4 (Oct/buff) Result)	solubility in n-octanol compared with PY-4Car, PY-4Car3C and DXD ([13]; different pH values (2.5 and 7.4))
CC[C@@]1(O)C(=O)OCc2c1cc1n(c2=O)Cc2c-1nc1cc(F)c(CN)c3c1c2CCC3 [PY-16, (S)-4-(aminomethyl)-9-ethyl-5-fluoro-9-hydroxy-1,2,3,9,12,15-hexahydro-10H,13H-benzo[de]pyrano[3′,4′:6,7]indolizino[1,2-b]quinolin-10,13-dione]	0.3391	0.1421	0.2768	0.2256	0.1325	0.3082	0.1933	0.2053	0.4346	0.5137	–	–	–	–	–	–	–
CC[C@@]1(O)C(=O)OCc2c1cc1n(c2=O)Cc2c-1nc1cc(F)c(CO)c3c1c2CCC3 [PY-10, (S)-9-ethyl-5-fluoro-9-hydroxy-4-(hydroxymethyl)-1,2,3,9,12,15-hexahydro-10H,13H-benzo[de]pyrano[3′,4′:6,7]indolizino[1,2-b]quinolin-10,13-dione]	0.1525	0.0456	0.1209	0.1540	0.0915	0.1546	0.0874	0.0792	0.2133	0.1968	–	–	–	–	–	–	–
CC[C@@]1(O)C(=O)OCc2c1cc1n(c2=O)Cc2c-1nc1cc(F)c(C)c3c1c2[C@@H](NC(=O)OCCO)CC3 [PY-4Car, 2-hydroxyethyl((1S,9S)-9-ethyl-5-fluoro-9-hydroxy-4-methyl-10,13-dioxy-2,3,9,10,13,15-hexahydro-1H,12H-benzo[de]pyran[3′,4:6,7]indolizino[1,2-b]quinolin-1-yl)carbamate]	0.4523	0.4491	0.6526	0.3187	0.4763	0.2923	0.3312	0.4832	0.4822	0.5151	0.3112	0.5193	2.1	2.09	–	–	–
CC[C@@]1(O)C(=O)OCc2c1cc1n(c2=O)Cc2c-1nc1cc(F)c(C)c3c1c2[C@@H](NC(=O)OCCCCO)CC3 [PY-4Car2, 4-hydroxybutyl((1S,9S)-9-ethyl-5-fluoro-9-hydroxy-4-methyl-10,13-dioxo-2,3,9,10,13,15-hexahydro-1H,12H-benzo[de]pyrano[3′,4′:6,7]indolizino[1,2-b]quinolin-1-yl)carbamate]	0.5803	0.7384	0.9590	0.4766	0.4865	0.4478	0.4854	0.5433	0.3573	–	0.5046	0.8170	–	–	2.44	2.43	belier solubility in n-octanol
